Patent US20250040914A1, “SYSTEMS AND METHODS FOR FOCUSED ULTRASOUND-ENABLED LIQUID BIOPSY” (Washington University, priority 2021, published 2025)

Experiment: FUS-BBBO delivery of Evans Blue to the mouse brain under closed-loop feedback control (fluorescence imaging of brain slices)
Assay type: in vivo, Swiss mice
Conditions: for drug delivery area (average): area with fluorescence higher than 10 dB above background of brain tissue; for fluorescence intensity of the delivered Evans Blue, increase relative to the 0.5 dB group: brainstem ROI, 30 μL of 4% Evans Blue i.v. after FUS, 30 min after sonication
Method: 25 Swiss mice (8-10 weeks, ˜25 g body weight, female, Charles River Laboratory, Wilmington, MA, USA) were randomly assigned into five groups (n=5 for each group) to evaluate five different TCLs using the disclosed algorithm. Swiss mice (8-10 weeks, ˜25 g body weight, female, Charles River Laboratory, Wilmington, MA, USA) were housed in a room maintained at 22° C. and 55% relative humidity, with a 12-h/12-h light/dark cycle and access to standard laboratory chow and water. […] Four Swiss mice were selected to evaluate an existing closed-loop feedback control algorithm with the TCL defined based on the detection of sub-harmonics. During all experiments, mice were anesthetized with 1.5-2% isoflurane and stabilized using a stereotaxic apparatus (Kopf, Tujunga, CA, USA). A heating pad with a temperature kept at ˜38° C. was used to maintain the mouse's body temperature. Mice were prepared for FUS sonication by removing fur on top of the head with a depilatory cream (Nair, Church & Dwight Co., NJ, USA) and coupled to a water container using ultrasound gel. A catheter was placed into the tail vein for microbubbles and Evans blue injection.
A microbubble contrast agent (Definity, Lantheus Medical Imaging, North Billerica, MA) was diluted using sterile saline to a final concentration of approximately 8×10^8 microbubbles per mL. A bolus of diluted microbubble contrast agent (volume=30 μL) was injected intravenously into each mouse through a tail vein catheter. The injection was performed using a computer-controlled syringe pump (NE-1600; New Era Pump Systems Inc.). Microbubbles infusion was started 15 s before FUS sonication to allow microbubbles to flow through the tail vein catheter and reach the mouse brain. The infusion lasted until the end of sonication at a constant rate of 12.8 μL/min. All mice were treated by FUS with output pressure controlled in real-time using the disclosed PCD-based closed-loop feedback control algorithm. The treatment procedure followed a two-step process. A representative example of sonication sequence and detected cavitation level is illustrated in FIG. 20.
A baseline stable cavitation (SC) level was established for each mouse with dummy FUS sonication after injecting the microbubbles. FUS sonication was performed using a pulse repetition frequency of 2 Hz, a pulse length of 6.7 ms burst (i.e., duty cycle: 1.33%), and a sonication duration of 5 s. The output pressure of FUS was 0.2 MPa (all pressures reported were the peak negative pressures calibrated in water). This pressure was selected because it was the lowest pressure at which the microbubble cavitation signal was higher than the noise level without microbubble injection and lower than the pressures needed to induce BBB disruption. During the sonication by each FUS pulse, acoustic emission from microbubbles was recorded by the PCD transducer and processed by a Fast-Fourier transform (FFT) algorithm. SC level was calculated by summing the magnitude of the spectrum within a ±0.02 MHz bandwidth at the third harmonic (i.e., 4.5 MHz) of the FUS transducer. The third harmonic emission was chosen because it was at the center frequency of the PCD transducer. Ten PCD signals were acquired, and the average of SC levels calculated from these ten signals was used to define the baseline SC level.
After establishing the baseline SC level as described above, the mice were further subjected to FUS sonication using the FUS-BBBO with real-time feedback control disclosed herein. During FUS sonication with microbubbles infusion, cavitation was monitored by PCD in real-time, and a custom closed-loop feedback control algorithm was used to control the SC level to be at different TCLs defined to be 0.5 dB, 1 dB, 2 dB, 3 dB, or 4 dB above the baseline SC level. […]

For `Cc1cc(-c2ccc(/N=N/c3ccc4c(S(=O)(=O)O)cc(S(=O)(=O)O)c(N)c4c3O)c(C)c2)ccc1/N=N/c1ccc2c(S(=O)(=O)O)cc(S(=O)(=O)O)c(N)c2c1O` [Evans Blue], the “drug delivery area (average)” value (TCL 0.5 dB) was 9.6 mm^2, the “fluorescence intensity of the delivered Evans Blue, increase relative to the 0.5 dB group” value (TCL 1 dB above baseline SC level) was 2.4 fold and the “fluorescence intensity of the delivered Evans Blue, increase relative to the 0.5 dB group” value (TCL 2 dB above baseline SC level) was 5.3 fold. The “fluorescence intensity of the delivered Evans Blue, increase relative to the 0.5 dB group” value (TCL 3 dB above baseline SC level) was 8.2 fold, the “drug delivery area, increase as TCL was raised from 0.5 dB to 3 dB” value (TCL 3 dB versus 0.5 dB) was 11.7 fold and the “drug delivery area (average)” value (TCL 3 dB) was 112.8 mm^2. The “fluorescence intensity and drug delivery area with respect to the values at a TCL of 3 dB” value (TCL 4 dB) was “slightly decreased”.
